Test results as given in publication PMC8213057, “Targeting ALK2: An Open Science Approach to Developing Therapeutics for the Treatment of Diffuse Intrinsic Pontine Glioma” (Journal of Medicinal Chemistry, 2020).
Values joined by “and” are separate entries in the source; they are usually repeats but may differ in a detail not shown here. Equal values may be shown once.

Columns and labels:
NEK4 = NEK4 (Homo sapiens, UniProt P51957); assay: biochemical; details: read-out: % enzyme activity, 1 μM; Run 1, Run 2
DAPK1 = DAPK1 (Homo sapiens, UniProt P53355); details: 1 μM; Run 1, Run 2
MSK2/RPS6KA4 = MSK2/RPS6KA4 (Homo sapiens, UniProt O75676); assay: biochemical; details: read-out: % enzyme activity, 1 μM; Run 1, Run 2
HIPK3 [1] = target: T1, HIPK3 (Homo sapiens, UniProt Q9H422); details: 1 μM; Run 1, Run 2
TRKB = TRKB (Homo sapiens, UniProt Q16620); assay: biochemical; details: read-out: % enzyme activity, 1 μM; Run 1, Run 2
IR = IR (Homo sapiens, UniProt P06213); assay: biochemical; details: read-out: % enzyme activity, 1 μM; Run 1, Run 2
ABL1 = ABL1 (Homo sapiens, UniProt P00519); details: 1 μM; Run 1, Run 2
HIPK3 [2] = target: T1, HIPK3; assay: biochemical; details: read-out: % enzyme activity, 1 μM; Run 1, Run 2
CDK6/cyclin D3 = CDK6/cyclin D3 (Homo sapiens, UniProt Q00534); details: 1 μM; Run 1, Run 2
EPHA7 = EPHA7 (Homo sapiens, UniProt Q15375); assay: biochemical; details: read-out: % enzyme activity, 1 μM; Run 1, Run 2
HIPK2 = HIPK2 (Homo sapiens, UniProt Q9H2X6); assay: biochemical; details: read-out: % enzyme activity, 1 μM; Run 1, Run 2
NEK7 = NEK7 (Homo sapiens, UniProt Q8TDX7); details: 1 μM; Run 1, Run 2
CAMK1a = CAMK1a (Homo sapiens, UniProt Q14012); assay: biochemical; details: read-out: % enzyme activity, 1 μM; Run 1, Run 2
CDK2/cyclin E2 = CDK2/cyclin E2 (Homo sapiens, UniProt P24941); assay: biochemical; details: read-out: % enzyme activity, 1 μM; Run 1, Run 2
NEK1 = target: T2, NEK1 (Homo sapiens, UniProt Q96PY6); assay: biochemical; details: read-out: % enzyme activity, 1 μM; Run 1, Run 2
T2 sequence (Q96PY6 1-1258): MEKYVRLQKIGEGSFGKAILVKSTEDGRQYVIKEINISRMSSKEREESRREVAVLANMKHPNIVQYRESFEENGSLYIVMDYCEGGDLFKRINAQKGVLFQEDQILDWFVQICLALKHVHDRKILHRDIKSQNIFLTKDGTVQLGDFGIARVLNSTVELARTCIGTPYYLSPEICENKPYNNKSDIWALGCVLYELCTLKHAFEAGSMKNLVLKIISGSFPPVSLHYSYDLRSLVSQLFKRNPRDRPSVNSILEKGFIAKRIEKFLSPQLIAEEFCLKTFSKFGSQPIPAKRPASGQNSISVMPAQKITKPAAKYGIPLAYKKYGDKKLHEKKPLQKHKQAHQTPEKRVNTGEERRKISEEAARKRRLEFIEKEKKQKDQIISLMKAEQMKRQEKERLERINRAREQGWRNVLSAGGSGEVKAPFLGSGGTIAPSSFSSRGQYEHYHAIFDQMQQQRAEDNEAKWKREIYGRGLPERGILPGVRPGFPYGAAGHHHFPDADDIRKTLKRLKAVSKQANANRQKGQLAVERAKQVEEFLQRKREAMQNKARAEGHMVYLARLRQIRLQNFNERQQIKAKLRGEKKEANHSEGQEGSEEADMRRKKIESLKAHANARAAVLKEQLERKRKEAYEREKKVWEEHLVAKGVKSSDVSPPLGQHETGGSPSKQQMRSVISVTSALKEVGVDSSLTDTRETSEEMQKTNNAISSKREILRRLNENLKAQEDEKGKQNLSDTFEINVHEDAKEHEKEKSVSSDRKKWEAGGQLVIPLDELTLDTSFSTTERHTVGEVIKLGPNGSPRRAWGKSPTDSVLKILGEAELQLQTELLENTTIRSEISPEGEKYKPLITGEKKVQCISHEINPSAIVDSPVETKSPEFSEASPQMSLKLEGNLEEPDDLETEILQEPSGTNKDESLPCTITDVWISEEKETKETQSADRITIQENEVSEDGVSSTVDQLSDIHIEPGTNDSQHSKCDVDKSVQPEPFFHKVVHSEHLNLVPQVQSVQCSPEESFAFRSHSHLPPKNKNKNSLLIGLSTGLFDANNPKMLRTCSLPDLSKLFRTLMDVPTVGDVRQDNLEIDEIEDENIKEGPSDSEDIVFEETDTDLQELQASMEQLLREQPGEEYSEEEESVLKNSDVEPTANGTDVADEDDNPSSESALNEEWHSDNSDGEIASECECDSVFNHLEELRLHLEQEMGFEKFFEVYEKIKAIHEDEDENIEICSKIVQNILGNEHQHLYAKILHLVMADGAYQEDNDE

SRMS = SRMS (Homo sapiens, UniProt Q9H3Y6); details: 1 μM; Run 1, Run 2
MKK7 = target: T3, MKK7 (Homo sapiens, UniProt O14733); assay: biochemical; details: read-out: % enzyme activity, 1 μM; Run 1, Run 2
T3 sequence (O14733 1-419): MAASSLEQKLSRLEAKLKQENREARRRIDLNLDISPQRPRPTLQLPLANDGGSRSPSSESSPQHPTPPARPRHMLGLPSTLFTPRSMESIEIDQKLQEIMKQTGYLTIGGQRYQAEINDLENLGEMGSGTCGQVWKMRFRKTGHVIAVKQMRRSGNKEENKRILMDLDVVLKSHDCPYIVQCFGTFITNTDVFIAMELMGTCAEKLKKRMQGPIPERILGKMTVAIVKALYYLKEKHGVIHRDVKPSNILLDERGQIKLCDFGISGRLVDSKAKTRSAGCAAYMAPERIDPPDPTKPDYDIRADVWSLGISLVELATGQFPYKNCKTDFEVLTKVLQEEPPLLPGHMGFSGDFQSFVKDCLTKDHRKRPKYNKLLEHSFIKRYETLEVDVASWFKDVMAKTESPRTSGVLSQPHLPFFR

AKT2 = AKT2 (Homo sapiens, UniProt P31751); assay: biochemical; details: read-out: % enzyme activity, 1 μM; Run 1, Run 2
LCK = LCK (Homo sapiens, UniProt P06239); details: 1 μM; Run 1, Run 2
LCK, sequence (P06239 whole entry): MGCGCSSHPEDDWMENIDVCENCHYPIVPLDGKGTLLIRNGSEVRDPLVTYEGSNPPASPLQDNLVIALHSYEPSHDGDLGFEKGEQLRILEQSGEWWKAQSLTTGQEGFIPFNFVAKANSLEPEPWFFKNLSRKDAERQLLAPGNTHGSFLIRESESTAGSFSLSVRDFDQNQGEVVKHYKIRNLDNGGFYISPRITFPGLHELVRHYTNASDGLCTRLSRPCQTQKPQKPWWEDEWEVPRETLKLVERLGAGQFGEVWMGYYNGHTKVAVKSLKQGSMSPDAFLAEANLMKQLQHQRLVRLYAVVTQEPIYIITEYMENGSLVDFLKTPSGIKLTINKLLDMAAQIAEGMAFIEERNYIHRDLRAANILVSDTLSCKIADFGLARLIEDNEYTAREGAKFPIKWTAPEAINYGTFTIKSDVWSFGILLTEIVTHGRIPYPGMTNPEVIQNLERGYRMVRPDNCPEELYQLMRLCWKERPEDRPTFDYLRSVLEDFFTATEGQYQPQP

T1 sequence (Q9H422 whole entry): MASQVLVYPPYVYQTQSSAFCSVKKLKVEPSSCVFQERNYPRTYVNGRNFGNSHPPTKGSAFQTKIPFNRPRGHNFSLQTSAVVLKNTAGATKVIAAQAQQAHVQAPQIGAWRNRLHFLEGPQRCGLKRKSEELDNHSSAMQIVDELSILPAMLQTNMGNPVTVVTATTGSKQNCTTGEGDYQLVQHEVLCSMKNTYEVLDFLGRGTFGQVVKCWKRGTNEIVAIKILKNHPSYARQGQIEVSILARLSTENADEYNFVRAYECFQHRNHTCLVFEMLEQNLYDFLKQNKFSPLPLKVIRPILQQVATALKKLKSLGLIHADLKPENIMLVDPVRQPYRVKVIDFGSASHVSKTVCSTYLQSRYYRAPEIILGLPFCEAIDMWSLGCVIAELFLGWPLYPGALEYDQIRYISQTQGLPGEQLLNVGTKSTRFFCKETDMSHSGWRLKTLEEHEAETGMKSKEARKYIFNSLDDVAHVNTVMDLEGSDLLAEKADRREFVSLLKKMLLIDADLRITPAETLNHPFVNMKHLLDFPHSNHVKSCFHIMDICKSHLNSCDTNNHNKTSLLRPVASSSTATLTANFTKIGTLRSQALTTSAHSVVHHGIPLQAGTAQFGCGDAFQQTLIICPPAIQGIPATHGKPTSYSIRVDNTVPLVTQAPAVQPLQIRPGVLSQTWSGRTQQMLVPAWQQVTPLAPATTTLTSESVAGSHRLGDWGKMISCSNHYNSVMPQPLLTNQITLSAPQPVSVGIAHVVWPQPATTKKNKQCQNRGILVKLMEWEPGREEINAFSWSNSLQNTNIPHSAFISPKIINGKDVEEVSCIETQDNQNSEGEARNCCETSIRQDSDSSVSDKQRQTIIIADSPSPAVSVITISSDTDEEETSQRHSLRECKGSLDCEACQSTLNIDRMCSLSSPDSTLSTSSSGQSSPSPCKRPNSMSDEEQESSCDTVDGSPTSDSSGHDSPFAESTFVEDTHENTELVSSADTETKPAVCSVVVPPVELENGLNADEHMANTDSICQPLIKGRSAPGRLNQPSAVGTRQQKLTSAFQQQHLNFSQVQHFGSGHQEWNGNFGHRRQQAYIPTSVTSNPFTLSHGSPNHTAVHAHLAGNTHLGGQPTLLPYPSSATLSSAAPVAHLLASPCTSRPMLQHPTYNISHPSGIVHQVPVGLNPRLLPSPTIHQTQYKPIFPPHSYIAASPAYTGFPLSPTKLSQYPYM
CAMK1a, sequence (Q14012 whole entry): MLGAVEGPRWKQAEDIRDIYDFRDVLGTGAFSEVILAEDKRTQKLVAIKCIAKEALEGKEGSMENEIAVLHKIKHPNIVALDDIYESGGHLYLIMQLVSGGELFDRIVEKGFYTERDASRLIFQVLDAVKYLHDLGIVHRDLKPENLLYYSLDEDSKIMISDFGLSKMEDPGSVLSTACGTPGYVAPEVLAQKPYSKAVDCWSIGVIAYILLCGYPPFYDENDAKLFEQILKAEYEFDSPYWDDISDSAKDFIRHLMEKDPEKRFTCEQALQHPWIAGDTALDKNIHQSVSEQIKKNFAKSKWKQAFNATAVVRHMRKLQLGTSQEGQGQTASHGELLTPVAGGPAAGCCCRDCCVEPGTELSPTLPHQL
NEK4, sequence (P51957 whole entry): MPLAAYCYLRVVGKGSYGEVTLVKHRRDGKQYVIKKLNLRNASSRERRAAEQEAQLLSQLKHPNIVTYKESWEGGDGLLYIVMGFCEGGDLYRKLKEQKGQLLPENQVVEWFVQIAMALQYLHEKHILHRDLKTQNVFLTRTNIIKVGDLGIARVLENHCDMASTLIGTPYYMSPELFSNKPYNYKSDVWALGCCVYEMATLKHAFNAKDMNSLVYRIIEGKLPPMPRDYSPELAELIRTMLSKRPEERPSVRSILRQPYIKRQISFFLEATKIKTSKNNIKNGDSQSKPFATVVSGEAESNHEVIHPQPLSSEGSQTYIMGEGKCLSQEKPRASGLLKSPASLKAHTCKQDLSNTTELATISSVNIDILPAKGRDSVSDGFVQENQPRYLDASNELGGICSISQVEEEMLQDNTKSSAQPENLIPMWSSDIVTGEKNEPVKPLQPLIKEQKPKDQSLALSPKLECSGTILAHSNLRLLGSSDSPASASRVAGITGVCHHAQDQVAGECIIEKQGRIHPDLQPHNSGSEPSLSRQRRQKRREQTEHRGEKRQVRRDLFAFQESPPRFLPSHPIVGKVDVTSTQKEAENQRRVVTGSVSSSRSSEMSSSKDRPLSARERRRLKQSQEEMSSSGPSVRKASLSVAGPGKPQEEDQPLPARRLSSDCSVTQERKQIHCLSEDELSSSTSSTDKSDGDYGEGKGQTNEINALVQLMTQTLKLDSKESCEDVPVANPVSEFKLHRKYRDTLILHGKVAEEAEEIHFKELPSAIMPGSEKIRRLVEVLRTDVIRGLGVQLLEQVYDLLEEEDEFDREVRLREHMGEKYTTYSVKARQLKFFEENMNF
CDK6/cyclin D3, sequence (Q00534 whole entry): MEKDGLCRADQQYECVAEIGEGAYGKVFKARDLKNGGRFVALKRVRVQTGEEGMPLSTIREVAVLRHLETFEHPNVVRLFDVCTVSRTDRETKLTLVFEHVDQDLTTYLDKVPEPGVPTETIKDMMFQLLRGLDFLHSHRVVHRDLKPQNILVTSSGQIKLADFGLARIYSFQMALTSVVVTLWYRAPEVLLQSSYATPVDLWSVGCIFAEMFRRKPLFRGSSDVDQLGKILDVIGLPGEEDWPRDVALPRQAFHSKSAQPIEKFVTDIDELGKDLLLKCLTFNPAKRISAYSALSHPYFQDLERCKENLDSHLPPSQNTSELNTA
CDK6/cyclin D3, sequence (P30281 whole entry partner): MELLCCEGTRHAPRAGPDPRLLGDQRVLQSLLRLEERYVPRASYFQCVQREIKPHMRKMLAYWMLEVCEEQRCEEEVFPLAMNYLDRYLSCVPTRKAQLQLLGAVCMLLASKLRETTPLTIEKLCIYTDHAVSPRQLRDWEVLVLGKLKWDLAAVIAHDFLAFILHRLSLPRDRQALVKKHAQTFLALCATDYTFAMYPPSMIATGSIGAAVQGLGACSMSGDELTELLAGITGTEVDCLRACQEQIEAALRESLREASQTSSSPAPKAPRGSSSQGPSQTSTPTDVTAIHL
TRKB, sequence (Q16620 32-822): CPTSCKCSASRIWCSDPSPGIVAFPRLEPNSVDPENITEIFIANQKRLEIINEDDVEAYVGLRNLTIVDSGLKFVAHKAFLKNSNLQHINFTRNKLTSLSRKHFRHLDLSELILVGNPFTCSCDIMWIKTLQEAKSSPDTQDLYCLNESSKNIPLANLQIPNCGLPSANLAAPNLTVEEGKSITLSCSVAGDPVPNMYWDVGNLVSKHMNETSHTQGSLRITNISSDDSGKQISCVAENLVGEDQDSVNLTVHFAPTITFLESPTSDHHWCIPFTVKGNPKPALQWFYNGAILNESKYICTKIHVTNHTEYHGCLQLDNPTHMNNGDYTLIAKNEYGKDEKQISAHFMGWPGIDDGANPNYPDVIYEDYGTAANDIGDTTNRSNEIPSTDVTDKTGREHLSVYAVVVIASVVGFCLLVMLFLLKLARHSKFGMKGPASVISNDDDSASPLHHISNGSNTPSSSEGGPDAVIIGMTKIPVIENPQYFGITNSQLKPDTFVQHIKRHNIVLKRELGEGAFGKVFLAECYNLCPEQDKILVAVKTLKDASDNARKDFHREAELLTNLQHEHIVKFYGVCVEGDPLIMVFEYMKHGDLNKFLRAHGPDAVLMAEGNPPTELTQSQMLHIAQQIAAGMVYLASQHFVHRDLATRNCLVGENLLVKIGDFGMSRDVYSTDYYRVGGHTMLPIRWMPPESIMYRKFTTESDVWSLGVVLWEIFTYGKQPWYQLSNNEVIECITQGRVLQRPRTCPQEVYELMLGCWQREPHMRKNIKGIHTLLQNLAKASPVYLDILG
SRMS, sequence (Q9H3Y6 whole entry): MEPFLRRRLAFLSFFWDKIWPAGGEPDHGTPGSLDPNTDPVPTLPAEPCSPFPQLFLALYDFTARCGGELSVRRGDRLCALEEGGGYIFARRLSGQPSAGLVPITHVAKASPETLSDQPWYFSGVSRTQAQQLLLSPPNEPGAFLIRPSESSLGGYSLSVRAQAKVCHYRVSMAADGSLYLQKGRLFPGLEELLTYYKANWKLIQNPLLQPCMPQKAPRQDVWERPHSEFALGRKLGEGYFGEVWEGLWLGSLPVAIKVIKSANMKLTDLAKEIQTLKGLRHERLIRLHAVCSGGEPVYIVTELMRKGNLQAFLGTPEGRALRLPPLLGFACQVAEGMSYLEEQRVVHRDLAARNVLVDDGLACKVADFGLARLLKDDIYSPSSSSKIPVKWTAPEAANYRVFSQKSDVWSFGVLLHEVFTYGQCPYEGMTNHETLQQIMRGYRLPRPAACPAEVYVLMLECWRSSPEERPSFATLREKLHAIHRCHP

SMILES	remaining activity at 1 µM (NEK4)	% enzyme activity (DAPK1)	% enzyme activity at 1 μM (KHS/MAP4K5)	remaining activity at 1 µM (MSK2/RPS6KA4)	% enzyme activity (HIPK3 [1])	remaining activity at 1 µM (TRKB)	remaining activity at 1 µM (IR)	% enzyme activity (ABL1)	remaining activity at 1 µM (HIPK3 [2])	% enzyme activity (CDK6/cyclin D3)	remaining activity at 1 µM (EPHA7)	remaining activity at 1 µM (HIPK2)	% enzyme activity (NEK7)	remaining activity at 1 µM (CAMK1a)	remaining activity at 1 µM (CDK2/cyclin E2)	remaining activity at 1 µM (NEK1)	% enzyme activity (SRMS)	remaining activity at 1 µM (MKK7)	remaining activity at 1 µM (AKT2)	% enzyme activity (LCK)
COc1cc(-c2cncc(-c3ccc(N4CCN(C)CC4)cc3)c2C)cc(F)c1C(N)=O [Compound 26a, 2-Fluoro-6-methoxy-4-(4-methyl-5-(4-(4-methylpiperazin-1-yl)phenyl)pyridin-3-yl)benzamide]	98.5%	94.56%	39.7% and 39.3%	97.1%	97.73%	100%	102%	75.12%	97.8%	86.25%	101%	99.8%	96.68%	94.9%	108%	87.6%	95.09%	93%	91.9%	92.53%
COc1cc(-c2cncc(-c3ccc(N4C[C@@H](C)N(C)[C@@H](C)C4)cc3)c2C)cc(F)c1C(N)=O [Compound 26c, 2-Fluoro-6-methoxy-4-(4-methyl-5-(4-((3R,5S)-3,4,5-trimethylpiperazin-1-yl)phenyl)pyridin-3-yl)benzamide]	98%	96.25%	41.7% and 40.6%	95.4%	89.08%	99%	100%	82.07%	90.4%	102.19%	98.4%	103%	97.32%	97.5%	95%	88.1%	95.91%	98.7%	93%	98.93%
